# According to BindingDB's records for patent US20240148821 (Chugai Seiyaku Kabushiki Kaisha, 2024):
# pIC50: −log10 of the molar value. Numbered stars: 1 amine (or outer) side, 2 acyl side, 3 side chain; on linkers, the order of the positions; unused ones are H or OH. Bridge positions count the residues as written; N and C are the ends. Square brackets hold non-standard residues; d marks the D form. Peptide text beside a SMILES is read from it. * marks the point of attachment. hPhe(3-Cl-4-CF3) = N[C@@H](CCc1ccc(C(F)(F)F)c(Cl)c1)C(=O)O; hPhe(3-F,4-CF3) = N[C@@H](CCc1ccc(C(F)(F)F)c(F)c1)C(=O)O; X134 = CN([C@@H](Cc1ccc(C#N)nc1)C(=O)[*:2])[*:1]; NMeTyr(3-F) = CN[C@@H](Cc1ccc(O)c(F)c1)C(=O)O; oXylylene = c1ccc(C[*:2])c(C[*:1])c1; NMeGly(cBu) = CN[C@H](C(=O)O)C1CCC1; NMeCha = CN[C@@H](CC1CCCCC1)C(=O)O; cisHyp = O=C(O)[C@@H]1C[C@H](O)CN1; X108 = O=C(CN(c1ccsc1)[*:1])[*:2]; Hyp = O=C(O)[C@@H]1C[C@@H](O)CN1; NMeChg = CN[C@H](C(=O)O)C1CCCCC1; NMeD = CN[C@@H](CC(=O)O)C(=O)O; NMeL = CN[C@@H](CC(C)C)C(=O)O; NMeA = CN[C@@H](C)C(=O)O; Piperidide = C1CCN(*)CC1; X57 = FC(F)Oc1ccc(C*)cc1; Ac5c = NC1(C(=O)O)CCCC1; Nlys = NCCCCNCC(=O)O; X94 = COc1cccc(C*)c1; Meb = Cc1ccc(C*)cc1; X87 = Clc1ccccc1C*; Sar = CNCC(=O)O
# Target: GTPase KRas (G12D) and Son of Sevenless Homolog 1 (SOS) (Homo sapiens, UniProt P01116, G12D)
# Sequence (P01116 whole entry G12D): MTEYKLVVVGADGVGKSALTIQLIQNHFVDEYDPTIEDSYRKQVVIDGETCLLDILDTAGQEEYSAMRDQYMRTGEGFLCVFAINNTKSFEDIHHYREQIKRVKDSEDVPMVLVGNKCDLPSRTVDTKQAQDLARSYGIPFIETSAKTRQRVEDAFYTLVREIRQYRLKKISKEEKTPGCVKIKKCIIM
# Sequence (Q07889 whole entry, further chain): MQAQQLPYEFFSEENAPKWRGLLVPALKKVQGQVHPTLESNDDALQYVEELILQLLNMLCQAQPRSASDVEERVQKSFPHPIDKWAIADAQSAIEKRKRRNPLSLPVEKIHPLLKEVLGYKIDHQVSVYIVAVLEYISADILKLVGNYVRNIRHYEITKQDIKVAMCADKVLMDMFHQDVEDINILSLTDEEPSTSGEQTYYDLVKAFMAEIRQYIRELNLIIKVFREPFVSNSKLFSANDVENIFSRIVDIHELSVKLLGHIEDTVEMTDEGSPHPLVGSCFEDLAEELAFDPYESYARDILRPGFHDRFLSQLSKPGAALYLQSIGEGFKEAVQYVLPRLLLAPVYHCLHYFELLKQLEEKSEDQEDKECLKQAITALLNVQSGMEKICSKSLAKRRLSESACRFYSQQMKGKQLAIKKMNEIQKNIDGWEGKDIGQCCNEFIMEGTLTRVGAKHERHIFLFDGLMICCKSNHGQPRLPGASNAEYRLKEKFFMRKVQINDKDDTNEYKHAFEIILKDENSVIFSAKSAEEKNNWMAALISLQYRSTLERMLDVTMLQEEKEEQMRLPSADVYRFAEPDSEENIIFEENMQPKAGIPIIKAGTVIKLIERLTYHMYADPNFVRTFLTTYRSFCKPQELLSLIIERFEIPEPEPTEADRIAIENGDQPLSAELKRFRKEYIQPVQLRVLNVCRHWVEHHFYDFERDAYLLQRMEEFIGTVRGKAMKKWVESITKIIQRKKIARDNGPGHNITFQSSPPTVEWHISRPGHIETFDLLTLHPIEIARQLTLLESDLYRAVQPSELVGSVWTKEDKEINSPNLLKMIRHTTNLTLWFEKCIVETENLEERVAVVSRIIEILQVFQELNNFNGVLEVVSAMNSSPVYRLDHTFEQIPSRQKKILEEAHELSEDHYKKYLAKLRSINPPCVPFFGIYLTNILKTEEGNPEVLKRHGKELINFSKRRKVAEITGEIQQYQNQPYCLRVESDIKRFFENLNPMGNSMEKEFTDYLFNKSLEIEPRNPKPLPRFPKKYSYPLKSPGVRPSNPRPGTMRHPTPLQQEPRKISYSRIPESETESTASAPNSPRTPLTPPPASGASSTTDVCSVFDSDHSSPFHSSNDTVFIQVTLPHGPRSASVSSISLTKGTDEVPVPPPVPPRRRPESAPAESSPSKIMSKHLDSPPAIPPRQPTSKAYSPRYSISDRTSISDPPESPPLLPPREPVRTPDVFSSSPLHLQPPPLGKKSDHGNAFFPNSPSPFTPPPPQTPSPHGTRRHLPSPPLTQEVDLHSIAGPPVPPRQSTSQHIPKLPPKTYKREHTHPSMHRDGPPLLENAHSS
# Experiment: AlphaScreen Assay
# Experimental: Protein-protein interaction inhibition (PPI) between Kras and SOS1 was measured by energy transfer from nickel-conjugated donor beads to streptavidin-conjugated acceptor beads using biotin-tagged human Kras expressed in E. coli and loaded with GDP after purification and His-tagged human SOS1 enzyme. This measurement utilizes the phenomenon in which donor beads are irradiated with light at 680 nm, such that energy is transferred to acceptor beads through singlet oxygen and light at 520-620 nm is detected from the acceptor beads.
row,Structure (SMILES),pIC50
1,"CC[C@H](C)[C@@H]1NC(=O)[C@H](CC(C)C)N(C)C(=O)C[C@@H](C(=O)N2CCCCC2)N(C)C(=O)[C@H](CC(C)C)N(C)C(=O)C2(CCCC2)NC(=O)[C@@H]2C[C@H](OCc3ccc(OC(F)F)cc3)CN2C(=O)[C@H](CCc2ccc(C(F)(F)F)c(F)c2)NC(=O)CN(C)C(=O)[C@H](CC2CCCCC2)N(C)C(=O)CN(C)C(=O)CN(C)C1=O [US20240148821, Compound 2135] ([NMeL]I[Sar][Sar][NMeCha][Sar][hPhe(3-F,4-CF3)][cisHyp](X57)[Ac5c][NMeL][NMeD]-Piperidide; lactam N-11)",7.06
2,"CC[C@H](C)[C@@H]1NC(=O)[C@H](CC(C)C)N(C)C(=O)C[C@@H](C(=O)N2CCCCC2)N(C)C(=O)[C@H](CC(C)C)N(C)C(=O)C2(CCCC2)NC(=O)[C@@H]2C[C@H](OCc3cccc(OC)c3)CN2C(=O)[C@H](CCc2ccc(C(F)(F)F)c(F)c2)NC(=O)CN(C)C(=O)[C@H](CC2CCCCC2)N(C)C(=O)CN(C)C(=O)CN(C)C1=O [US20240148821, Compound 2136] ([NMeL]I[Sar][Sar][NMeCha][Sar][hPhe(3-F,4-CF3)][cisHyp](X94)[Ac5c][NMeL][NMeD]-Piperidide; lactam N-11)",7.41
3,"CC[C@H](C)[C@@H]1NC(=O)[C@H](CC(C)C)N(C)C(=O)C[C@@H](C(=O)N2CCCCC2)N(C)C(=O)[C@H](CC(C)C)N(C)C(=O)C2(CCCC2)NC(=O)[C@@H]2C[C@H](OCc3ccccc3C)CN2C(=O)[C@H](CCc2ccc(C(F)(F)F)c(F)c2)NC(=O)CN(C)C(=O)[C@H](CC2CCCCC2)N(C)C(=O)CN(C)C(=O)CN(C)C1=O [US20240148821, Compound 2137] ([NMeL]I[Sar][Sar][NMeCha][Sar][hPhe(3-F,4-CF3)][cisHyp](oXylylene)[Ac5c][NMeL][NMeD]-Piperidide; lactam N-11)",7.16
4,"CC[C@H](C)[C@@H]1NC(=O)[C@H](CC(C)C)N(C)C(=O)C[C@@H](C(=O)N2CCCCC2)N(C)C(=O)[C@H](CC(C)C)N(C)C(=O)C2(CCCC2)NC(=O)[C@@H]2C[C@@H](OCc3ccccc3Cl)CN2C(=O)[C@H](CCc2ccc(C(F)(F)F)c(F)c2)NC(=O)CN(C)C(=O)[C@H](CC2CCCCC2)N(C)C(=O)CN(C)C(=O)CN(C)C1=O [US20240148821, Compound 2138] ([NMeL]I[Sar][Sar][NMeCha][Sar][hPhe(3-F,4-CF3)][Hyp](X87)[Ac5c][NMeL][NMeD]-Piperidide; lactam N-11)",8.07
5,"CC[C@H](C)[C@@H]1NC(=O)[C@H](CC(C)C)N(C)C(=O)C[C@@H](C(=O)N2CCCCC2)N(C)C(=O)[C@H](CC(C)C)N(C)C(=O)C2(CCCC2)NC(=O)[C@@H]2C[C@@H](OCc3ccccc3C)CN2C(=O)[C@H](CCc2ccc(C(F)(F)F)c(F)c2)NC(=O)CN(C)C(=O)[C@H](CC2CCCCC2)N(C)C(=O)CN(C)C(=O)CN(C)C1=O [US20240148821, Compound 2139] ([NMeL]I[Sar][Sar][NMeCha][Sar][hPhe(3-F,4-CF3)][Hyp](oXylylene)[Ac5c][NMeL][NMeD]-Piperidide; lactam N-11)",7.64
6,"CC[C@H](C)[C@@H]1NC(=O)[C@H](CC(C)C)N(C)C(=O)C[C@@H](C(=O)N2CCCCC2)N(C)C(=O)[C@H](CC(C)C)N(C)C(=O)C2(CCCC2)NC(=O)[C@@H]2C[C@H](OCc3ccc(C)cc3)CN2C(=O)[C@H](CCc2ccc(C(F)(F)F)c(F)c2)NC(=O)CN(C)C(=O)[C@H](CC2CCCCC2)N(C)C(=O)CN(C)C(=O)CN(C)C1=O [US20240148821, Compound 2140] ([NMeL]I[Sar][Sar][NMeCha][Sar][hPhe(3-F,4-CF3)][cisHyp](Meb)[Ac5c][NMeL][NMeD]-Piperidide; lactam N-11)",7.49
7,"CC[C@H](C)[C@@H]1NC(=O)[C@H](C)N(C)C(=O)C[C@@H](C(=O)N2CCCCC2)N(C)C(=O)[C@H](C2CCC2)N(C)C(=O)C2(CCCC2)NC(=O)CN(c2ccsc2)C(=O)[C@H](CCc2ccc(C(F)(F)F)c(Cl)c2)NC(=O)CN(C)C(=O)[C@H](CC2CCCCC2)N(C)C(=O)CN(C)C(=O)CN(C)C1=O [US20240148821, Compound 2149] ([NMeA]I[Sar][Sar][NMeCha][Sar][hPhe(3-Cl-4-CF3)][X108][Ac5c][NMeGly(cBu)][NMeD]-Piperidide; lactam N-11)",8.40
8,"CC[C@H](C)[C@@H]1NC(=O)[C@H](CC(C)C)N(C)C(=O)C[C@@H](C(=O)N2CCCCC2)N(C)C(=O)[C@H](C2CCCCC2)N(C)C(=O)C2(CCCC2)NC(=O)[C@H](Cc2ccc(C#N)nc2)N(C)C(=O)[C@H](CCc2ccc(C(F)(F)F)c(Cl)c2)NC(=O)CN(C)C(=O)[C@H](CC2CCCCC2)N(C)C(=O)CN(C)C(=O)CN(C)C1=O [US20240148821, Compound 2169] ([NMeL]I[Sar][Sar][NMeCha][Sar][hPhe(3-Cl-4-CF3)][X134][Ac5c][NMeChg][NMeD]-Piperidide; lactam N-11)",8.21
9,"CC[C@H](C)[C@@H]1NC(=O)[C@H](CC(C)C)N(C)C(=O)C[C@@H](C(=O)N2CCCCC2)N(C)C(=O)[C@H](C2CCCCC2)N(C)C(=O)C2(CCCC2)NC(=O)[C@H](Cc2ccc(O)c(F)c2)N(C)C(=O)[C@H](CCc2ccc(C(F)(F)F)c(Cl)c2)NC(=O)CN(C)C(=O)[C@H](CC2CCCCC2)N(C)C(=O)CN(C)C(=O)CN(C)C1=O [US20240148821, Compound 2170] ([NMeL]I[Sar][Sar][NMeCha][Sar][hPhe(3-Cl-4-CF3)][NMeTyr(3-F)][Ac5c][NMeChg][NMeD]-Piperidide; lactam N-11)",7.16
10,"CC[C@H](C)[C@@H]1NC(=O)[C@H](CC(C)C)N(C)C(=O)C[C@@H](C(=O)N2CCCCC2)N(C)C(=O)[C@H](C2CCCCC2)N(C)C(=O)C2(CCCC2)NC(=O)CN(CCCCN)C(=O)[C@H](CCc2ccc(C(F)(F)F)c(Cl)c2)NC(=O)CN(C)C(=O)[C@H](CC2CCCCC2)N(C)C(=O)CN(C)C(=O)CN(C)C1=O [US20240148821, Compound 2186] ([NMeL]I[Sar][Sar][NMeCha][Sar][hPhe(3-Cl-4-CF3)][Nlys][Ac5c][NMeChg][NMeD]-Piperidide; lactam N-11)",8.12
